# Measurements from ChEMBL document CHEMBL5214960 (J Med Chem, 2022).
# Where a chain is given by its changes, count along the chain named.
# Assays:
# [1] = biological target: Tyrosine-protein phosphatase non-receptor type 3 (Homo sapiens, UniProt P26045); experiment: Inhibition of PTPH1 (unknown origin)
# [2] = Inhibition of PTP-Meg2 (unknown origin); design: species or system Homo sapiens
# [3] = biological target: Tyrosine-protein phosphatase non-receptor type 7 (Homo sapiens, UniProt P35236); experiment: Inhibition of HePTP (unknown origin)
# [4] = biological target: Tyrosine-protein phosphatase non-receptor type 22 (Homo sapiens, UniProt Q9Y2R2); experiment: Inhibition of LYP (unknown origin)
# Chain of Tyrosine-protein phosphatase non-receptor type 22 (Q9Y2R2 whole entry): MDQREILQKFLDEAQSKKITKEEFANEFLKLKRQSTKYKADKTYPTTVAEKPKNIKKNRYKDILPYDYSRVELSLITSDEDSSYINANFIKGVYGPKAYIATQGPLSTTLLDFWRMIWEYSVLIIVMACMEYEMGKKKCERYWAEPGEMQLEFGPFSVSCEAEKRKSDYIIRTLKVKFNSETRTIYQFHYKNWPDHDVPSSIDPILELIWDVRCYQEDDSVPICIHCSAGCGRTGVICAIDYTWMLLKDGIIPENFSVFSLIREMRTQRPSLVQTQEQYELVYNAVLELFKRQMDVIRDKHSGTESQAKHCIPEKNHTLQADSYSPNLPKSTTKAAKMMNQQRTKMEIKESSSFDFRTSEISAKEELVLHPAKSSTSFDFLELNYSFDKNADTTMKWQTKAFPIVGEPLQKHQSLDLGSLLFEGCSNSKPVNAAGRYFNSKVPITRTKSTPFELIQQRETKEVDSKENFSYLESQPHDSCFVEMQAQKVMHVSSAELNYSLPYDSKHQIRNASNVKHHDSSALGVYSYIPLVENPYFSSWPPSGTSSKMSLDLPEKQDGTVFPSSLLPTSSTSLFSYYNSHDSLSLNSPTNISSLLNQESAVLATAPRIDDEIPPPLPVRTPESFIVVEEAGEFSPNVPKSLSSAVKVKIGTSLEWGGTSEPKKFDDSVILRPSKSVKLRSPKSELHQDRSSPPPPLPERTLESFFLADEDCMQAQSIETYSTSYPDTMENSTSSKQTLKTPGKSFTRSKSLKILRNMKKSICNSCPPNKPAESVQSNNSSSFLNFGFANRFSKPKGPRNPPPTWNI
# [5] = biological target: Tyrosine-protein phosphatase non-receptor type 6 (Homo sapiens, UniProt P29350); experiment: Inhibition of SHP1 (unknown origin)
# [6] = biological target: Tyrosine-protein phosphatase non-receptor type 1 (Homo sapiens, UniProt P18031); experiment: Inhibition of PTP1B (unknown origin)
# [7] = biological target: T1, Low molecular weight phosphotyrosine protein phosphatase (Mus musculus, UniProt Q9D358); experiment: Inhibition of N-terminal His-tagged full length mouse LMW-PTP expressed in Escherichia coli BL21(DE3) by […] analysis
# T1 sequence (Q9D358 whole entry): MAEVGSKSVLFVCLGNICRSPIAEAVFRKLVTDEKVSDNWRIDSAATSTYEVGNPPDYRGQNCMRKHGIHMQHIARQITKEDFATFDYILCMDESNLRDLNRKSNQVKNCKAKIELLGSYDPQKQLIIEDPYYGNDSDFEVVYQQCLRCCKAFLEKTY
# [8] = biological target: T2, Low molecular weight phosphotyrosine protein phosphatase (Homo sapiens, UniProt P24666); experiment: Inhibition of His-tagged human LMW-PTP expressed in Escherichia coli BL21 using pNPP as substrate incubated for 10 mins by microplate reader based spectrophotometric analysis
# T2 sequence (P24666 whole entry): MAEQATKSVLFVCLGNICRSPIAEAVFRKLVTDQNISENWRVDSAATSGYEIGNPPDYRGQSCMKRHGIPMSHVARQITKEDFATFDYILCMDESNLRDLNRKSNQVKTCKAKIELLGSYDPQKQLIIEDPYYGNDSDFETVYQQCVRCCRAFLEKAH
# [9] = biological target: Tyrosine-protein phosphatase non-receptor type 12 (Homo sapiens, UniProt Q05209); experiment: Inhibition of PEST(unknown origin)
# Chain of Tyrosine-protein phosphatase non-receptor type 12 (Q05209 whole entry): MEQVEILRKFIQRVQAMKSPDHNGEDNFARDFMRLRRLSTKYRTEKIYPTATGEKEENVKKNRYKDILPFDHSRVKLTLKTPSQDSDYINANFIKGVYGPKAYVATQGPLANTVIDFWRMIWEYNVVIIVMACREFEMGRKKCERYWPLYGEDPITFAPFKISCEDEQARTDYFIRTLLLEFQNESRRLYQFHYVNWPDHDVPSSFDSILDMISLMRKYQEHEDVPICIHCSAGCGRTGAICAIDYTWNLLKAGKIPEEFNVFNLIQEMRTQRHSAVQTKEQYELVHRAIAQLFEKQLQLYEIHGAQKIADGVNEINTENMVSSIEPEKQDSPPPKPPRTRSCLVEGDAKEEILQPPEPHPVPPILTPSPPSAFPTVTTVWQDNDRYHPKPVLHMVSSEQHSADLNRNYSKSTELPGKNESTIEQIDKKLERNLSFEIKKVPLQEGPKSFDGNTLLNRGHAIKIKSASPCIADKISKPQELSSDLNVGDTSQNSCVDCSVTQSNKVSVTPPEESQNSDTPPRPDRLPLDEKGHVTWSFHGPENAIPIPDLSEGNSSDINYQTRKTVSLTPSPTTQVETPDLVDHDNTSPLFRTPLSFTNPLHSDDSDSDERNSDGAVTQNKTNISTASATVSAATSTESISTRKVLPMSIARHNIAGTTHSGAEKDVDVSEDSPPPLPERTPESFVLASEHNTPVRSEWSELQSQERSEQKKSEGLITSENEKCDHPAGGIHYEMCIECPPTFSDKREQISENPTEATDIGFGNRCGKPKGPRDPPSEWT
# [10] = biological target: Receptor-type tyrosine-protein phosphatase C (Homo sapiens, UniProt P08575); experiment: Inhibition of CD45 (unknown origin)
# [11] = biological target: Receptor-type tyrosine-protein phosphatase F (Homo sapiens, UniProt P10586); experiment: Inhibition of LAR(unknown origin)
# [12] = biological target: Receptor-type tyrosine-protein phosphatase alpha (Homo sapiens, UniProt P18433); experiment: Inhibition of PTPalpha (unknown origin)
# Chain of Receptor-type tyrosine-protein phosphatase alpha (P18433 whole entry): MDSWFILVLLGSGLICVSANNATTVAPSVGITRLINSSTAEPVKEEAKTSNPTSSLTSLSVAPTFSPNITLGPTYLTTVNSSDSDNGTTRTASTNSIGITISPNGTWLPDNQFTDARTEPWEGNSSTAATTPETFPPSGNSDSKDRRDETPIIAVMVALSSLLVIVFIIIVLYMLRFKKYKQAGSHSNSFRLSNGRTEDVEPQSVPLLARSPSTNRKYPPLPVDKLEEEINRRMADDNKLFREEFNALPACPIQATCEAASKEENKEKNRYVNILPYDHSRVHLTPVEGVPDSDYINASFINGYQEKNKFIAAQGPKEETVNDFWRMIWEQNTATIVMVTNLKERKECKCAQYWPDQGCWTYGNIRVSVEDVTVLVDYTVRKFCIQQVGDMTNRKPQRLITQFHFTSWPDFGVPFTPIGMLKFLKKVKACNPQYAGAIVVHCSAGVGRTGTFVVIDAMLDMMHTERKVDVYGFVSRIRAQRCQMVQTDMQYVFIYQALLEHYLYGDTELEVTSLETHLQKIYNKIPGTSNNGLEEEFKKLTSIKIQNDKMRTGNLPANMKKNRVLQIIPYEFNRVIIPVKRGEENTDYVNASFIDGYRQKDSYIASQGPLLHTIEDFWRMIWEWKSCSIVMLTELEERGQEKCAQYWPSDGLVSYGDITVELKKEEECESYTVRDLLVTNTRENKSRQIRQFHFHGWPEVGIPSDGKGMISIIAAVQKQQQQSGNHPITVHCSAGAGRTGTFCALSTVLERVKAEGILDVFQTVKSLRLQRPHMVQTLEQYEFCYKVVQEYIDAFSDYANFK
# [13] = biological target: Receptor-type tyrosine-protein phosphatase gamma (Homo sapiens, UniProt P23470); experiment: Inhibition of PTPgamma (unknown origin)
# [14] = biological target: Receptor-type tyrosine-protein phosphatase mu (Homo sapiens, UniProt P28827); experiment: Inhibition of PTPmu (unknown origin)
# Chain of Receptor-type tyrosine-protein phosphatase mu (P28827 whole entry): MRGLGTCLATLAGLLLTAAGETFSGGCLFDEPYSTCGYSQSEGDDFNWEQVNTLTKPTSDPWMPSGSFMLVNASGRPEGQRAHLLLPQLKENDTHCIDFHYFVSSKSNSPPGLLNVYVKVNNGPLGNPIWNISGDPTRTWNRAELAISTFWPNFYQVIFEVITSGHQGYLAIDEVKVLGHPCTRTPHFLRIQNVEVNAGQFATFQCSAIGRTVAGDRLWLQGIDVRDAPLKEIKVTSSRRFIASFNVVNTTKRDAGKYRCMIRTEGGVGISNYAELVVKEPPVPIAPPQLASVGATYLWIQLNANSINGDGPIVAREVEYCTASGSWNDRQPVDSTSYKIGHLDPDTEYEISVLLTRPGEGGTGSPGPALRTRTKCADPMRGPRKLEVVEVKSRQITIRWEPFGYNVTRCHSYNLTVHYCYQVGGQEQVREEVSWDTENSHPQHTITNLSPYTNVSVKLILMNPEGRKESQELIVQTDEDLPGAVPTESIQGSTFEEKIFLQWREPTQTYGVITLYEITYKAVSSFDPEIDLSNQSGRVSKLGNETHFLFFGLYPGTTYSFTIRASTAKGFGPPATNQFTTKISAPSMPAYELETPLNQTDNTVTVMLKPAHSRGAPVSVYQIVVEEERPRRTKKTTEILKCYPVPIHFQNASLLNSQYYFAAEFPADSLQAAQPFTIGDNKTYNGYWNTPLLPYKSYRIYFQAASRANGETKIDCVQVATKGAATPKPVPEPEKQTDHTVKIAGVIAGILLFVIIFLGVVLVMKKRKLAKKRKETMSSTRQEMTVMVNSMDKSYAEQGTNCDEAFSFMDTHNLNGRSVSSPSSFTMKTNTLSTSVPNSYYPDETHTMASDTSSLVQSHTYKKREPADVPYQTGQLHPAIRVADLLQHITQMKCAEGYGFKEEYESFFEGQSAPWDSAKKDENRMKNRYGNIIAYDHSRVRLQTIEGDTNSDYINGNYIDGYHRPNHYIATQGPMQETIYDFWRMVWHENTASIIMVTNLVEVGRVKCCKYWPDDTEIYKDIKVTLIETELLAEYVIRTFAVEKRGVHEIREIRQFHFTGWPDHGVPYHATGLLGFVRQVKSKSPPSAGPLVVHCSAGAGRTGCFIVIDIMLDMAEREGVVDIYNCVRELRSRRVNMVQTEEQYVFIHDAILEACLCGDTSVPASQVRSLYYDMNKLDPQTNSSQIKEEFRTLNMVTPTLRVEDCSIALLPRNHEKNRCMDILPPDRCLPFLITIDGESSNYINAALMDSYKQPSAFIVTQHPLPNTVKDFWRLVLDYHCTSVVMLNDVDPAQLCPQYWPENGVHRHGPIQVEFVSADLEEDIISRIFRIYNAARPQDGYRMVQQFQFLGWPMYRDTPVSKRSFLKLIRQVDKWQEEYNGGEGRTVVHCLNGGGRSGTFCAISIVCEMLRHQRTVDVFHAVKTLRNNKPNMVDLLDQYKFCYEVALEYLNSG
# [15] = biological target: Dual specificity protein phosphatase 3 (Homo sapiens, UniProt P51452); experiment: Inhibition of VHR (unknown origin)
# [16] = biological target: Dual specificity protein phosphatase 23 (Homo sapiens, UniProt Q9BVJ7); experiment: Inhibition of VHZ (unknown origin)
# Chain of Dual specificity protein phosphatase 23 (Q9BVJ7 whole entry): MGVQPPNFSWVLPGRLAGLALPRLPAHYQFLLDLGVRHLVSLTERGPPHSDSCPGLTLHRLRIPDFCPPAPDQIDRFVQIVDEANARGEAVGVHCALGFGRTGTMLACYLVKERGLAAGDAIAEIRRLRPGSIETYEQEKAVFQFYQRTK
# [17] = biological target: Dual specificity protein phosphatase CDC14A (Homo sapiens, UniProt Q9UNH5); experiment: Inhibition of CDC14A (unknown origin)
# Chain of Dual specificity protein phosphatase CDC14A (Q9UNH5 whole entry): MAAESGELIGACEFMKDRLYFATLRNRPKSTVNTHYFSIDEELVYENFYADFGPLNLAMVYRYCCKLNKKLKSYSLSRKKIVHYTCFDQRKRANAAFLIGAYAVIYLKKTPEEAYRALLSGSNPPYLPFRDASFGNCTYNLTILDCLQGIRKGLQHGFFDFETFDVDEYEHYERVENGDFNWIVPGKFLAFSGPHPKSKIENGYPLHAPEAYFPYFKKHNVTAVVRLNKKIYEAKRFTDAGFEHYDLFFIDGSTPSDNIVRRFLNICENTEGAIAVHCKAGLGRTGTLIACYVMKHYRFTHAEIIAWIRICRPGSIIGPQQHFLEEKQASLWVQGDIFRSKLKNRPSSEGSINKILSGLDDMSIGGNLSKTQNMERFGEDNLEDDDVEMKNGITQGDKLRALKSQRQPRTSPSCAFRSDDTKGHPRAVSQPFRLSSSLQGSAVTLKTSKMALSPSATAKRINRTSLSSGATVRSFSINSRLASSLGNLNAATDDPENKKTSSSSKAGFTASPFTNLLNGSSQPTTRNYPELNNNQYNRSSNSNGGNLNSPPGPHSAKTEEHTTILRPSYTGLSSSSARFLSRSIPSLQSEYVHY
# [18] = biological target: Serine/threonine-protein phosphatase 5 (Homo sapiens, UniProt P53041); experiment: Inhibition of PP5 (unknown origin)
# [19] = Aqueous solubility of compound at pH 6 by HPLC analysis; type: physicochemical; settings: buffer
# CYP2D6 = CYP2D6 (Homo sapiens, UniProt P10635); experiment: Inhibition of human hepatic CYP2D6 using bufuralol HCL as substrate measured after 3 mins by LC-MS analysis relative to control; type: ADME, tissue-based; design: concentration or dose not given beside the values; settings: human hepatic CYP2D6 (liver), probe bufuralol HCl
# CYP2C9 = CYP2C9 (Homo sapiens, UniProt P11712); experiment: Inhibition of human hepatic CYP2C9 using diclofenac as substrate measured after 10 mins by LC-MS analysis relative to control; type: ADME, tissue-based; design: concentration or dose not given beside the values; settings: human hepatic CYP2C9 (liver), probe diclofenac
# Chain of CYP2C9 (P11712 whole entry): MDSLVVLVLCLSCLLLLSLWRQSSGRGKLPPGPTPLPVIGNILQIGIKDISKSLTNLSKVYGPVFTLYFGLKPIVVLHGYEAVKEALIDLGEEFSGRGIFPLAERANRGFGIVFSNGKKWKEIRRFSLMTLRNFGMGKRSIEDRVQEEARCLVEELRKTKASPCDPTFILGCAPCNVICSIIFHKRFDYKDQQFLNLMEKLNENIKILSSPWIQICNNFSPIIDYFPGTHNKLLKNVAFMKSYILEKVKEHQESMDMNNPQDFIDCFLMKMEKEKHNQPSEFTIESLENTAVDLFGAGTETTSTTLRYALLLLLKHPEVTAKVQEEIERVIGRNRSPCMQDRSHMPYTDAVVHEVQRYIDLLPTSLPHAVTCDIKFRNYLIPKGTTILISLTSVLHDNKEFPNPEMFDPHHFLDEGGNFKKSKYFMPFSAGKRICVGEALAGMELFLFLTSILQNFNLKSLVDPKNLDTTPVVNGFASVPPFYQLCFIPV
# CYP3A4 = CYP3A4 (Homo sapiens, UniProt P08684); experiment: Inhibition of human hepatic CYP3A4 using midazolam as substrate measured after 3 mins by LC-MS analysis relative to control; type: ADME, tissue-based; design: concentration or dose not given beside the values; settings: human hepatic CYP3A4 (liver), probe midazolam
# [20] = Metabolic stability in human hepatic microsome at 4 uM measured after 30 mins by LC-MS analysis; type: ADME; settings: liver microsomes, read-out: Stability
# [21] = Metabolic stability in dog hepatic microsome at 4 uM measured after 30 mins by LC-MS analysis; type: ADME, Canis lupus familiaris; settings: liver microsomes, read-out: Stability
# [22] = Cmax in CD-1 mouse plasma at 2 mg/kg, iv measured after 8 hrs by LC-MS/MS analysis; type: ADME, organism-based; design: time 8 hrs, dose 2 mg/kg, route iv
# [23] = Unbound Cmax in plasma of CD-1 mouse at 10 mg/kg, po measured after 8 hrs by LC-MS/MS analysis; type: ADME, organism-based; settings: in vivo
# [24] = Volume of distribution at steady state in CD-1 mouse plasma at 2 mg/kg, iv measured after 8 hrs by LC-MS/MS analysis; type: ADME, organism-based; settings: in vivo
# [25] = Half life in CD-1 mouse plasma at 2 mg/kg, iv measured after 8 hrs by LC-MS/MS analysis; type: ADME, organism-based; settings: mouse, in vivo, iv, 2 mg/kg, 8 h
# [26] = Oral bioavailability in CD-1 mouse plasma at 10 mg/kg measured after 8 hrs by LC-MS/MS analysis; type: ADME, organism-based; settings: mouse, in vivo, po, 10 mg/kg, 8 h
# [27] = AUC(0 to 12 hrs) in Sprague-Dawley rat plasma at 30 mg/kg, po measured after 24 hrs by LC-MS/MS analysis; type: ADME, organism-based; design: time 24 hrs, dose 30 mg/kg, route po; settings: in vivo
# [28] = AUC(0 to 12 hrs) in Sprague-Dawley rat plasma at 3 mg/kg, po measured after 24 hrs by LC-MS/MS analysis; type: ADME, organism-based; design: time 24 hrs, dose 3 mg/kg, route po; settings: in vivo
# [29] = Cmax in Sprague-Dawley rat plasma at 3 mg/kg, po measured after 24 hrs by LC-MS/MS analysis; type: ADME, organism-based; design: time 24 hrs, dose 3 mg/kg, route po; settings: in vivo
# [30] = Unbound Cmax in plasma of Sprague-Dawley rat at 30 mg/kg, po measured after 24 hrs by LC-MS/MS analysis; type: ADME, organism-based; settings: in vivo
# [31] = Unbound Cmax in plasma of Sprague-Dawley rat at 3 mg/kg, po measured after 24 hrs by LC-MS/MS analysis; type: ADME, organism-based; settings: in vivo
# [32] = Half life in Sprague-Dawley rat plasma at 30 mg/kg, po measured after 24 hrs by LC-MS/MS analysis; type: ADME, organism-based; settings: in vivo
# [33] = Half life in Sprague-Dawley rat plasma at 3 mg/kg, po measured after 24 hrs by LC-MS/MS analysis; type: ADME, organism-based; settings: in vivo
# [34] = biological target: T3, Low molecular weight phosphotyrosine protein phosphatase (Rattus norvegicus, UniProt P41498); experiment: Inhibition of N-terminal His-tagged full length rat LMW-PTP expressed in Escherichia coli BL21(DE3)
# T3 sequence (P41498 whole entry): T1 sequence (Q9D358 whole entry) with K35N, R65K, K80R, Y158H
# [35] = biological target: T2, Low molecular weight phosphotyrosine protein phosphatase; experiment: Competitive inhibition of LMW-PTP (unknown origin) assessed as inhibition constant by Lineweaver-Burk plot analysis
smiles,measurement,setting,value
Cc1c(Br)cc(NC(=O)NS(=O)(=O)O)cc1Br,IC50,[1],> 10 µM
same,IC50,[2],> 10 µM
same,IC50,[3],> 10 µM
same,IC50,[4],> 10 µM
same,IC50,[5],> 10 µM
same,IC50,[6],> 10 µM
same,IC50,[7],0.003 µM
same,IC50,[8],0.004 µM
same,IC50,[9],> 10 µM
same,IC50,[10],> 10 µM
same,IC50,[11],> 10 µM
same,IC50,[12],> 10 µM
same,IC50,[13],> 10 µM
same,IC50,[14],> 10 µM
same,IC50,[15],> 10 µM
same,IC50,[16],> 10 µM
same,IC50,[17],> 10 µM
same,IC50,[18],> 10 µM
same,solubility,[19],9.5 µg/mL
same,inhibition at 0.05 h,CYP2D6,2%
same,inhibition at 10 min,CYP2C9,0%
same,inhibition at 0.05 h,CYP3A4,0%
same,"remaining at 0.5 h, 4 µM",[20],21%
same,"remaining at 0.5 h, 4 µM",[21],38%
same,Cmax,[22],13.4 µM
same,fCmax,[23],233 nM
same,Vdss,[24],0.42 L/kg
same,t1/2,[25],1.41 h
same,F,[26],34%
same,AUC,[27],42.8 µM·h
same,AUC,[28],4.66 µM·h
same,Cmax,[29],0.877 µM
same,fCmax,[30],158 nM
same,fCmax,[31],21 nM
same,t1/2,[32],2.8 h
same,t1/2,[33],2.4 h
same,IC50,[34],0.003 µM
same,Ki,[35],0.0012 µM
